PMC6254985 (Journal of Experimental Pharmacology, 2018)
Counter-ions that a name gives are not always drawn. Like-named read-outs stand apart in the source and are kept apart here.

Columns and labels:
[1] = system: alpha-adrenergic receptors; test: Inhibition of alpha-adrenergic receptors
human D2S receptor = human D2S receptor (Homo sapiens, UniProt P14416); test: [35S]GTPγS binding assay, antagonist activity, D2S; type: biochemical
[2] = cited from earlier work
[3] = system: 5-HT2A, 5-HT2B, 5-HT2C, 5-HT6, 5-HT7, D1, D2S, D2L, D3, or D5; test: Agonist effect in the presence of dopamine or norepinephrine; type: cell-based
human D2L receptor = human D2L receptor (Homo sapiens, UniProt P14416); test: [35S]GTPγS binding assay, antagonist activity, D2L; type: biochemical
Chain of human D2L receptor (P14416 whole entry): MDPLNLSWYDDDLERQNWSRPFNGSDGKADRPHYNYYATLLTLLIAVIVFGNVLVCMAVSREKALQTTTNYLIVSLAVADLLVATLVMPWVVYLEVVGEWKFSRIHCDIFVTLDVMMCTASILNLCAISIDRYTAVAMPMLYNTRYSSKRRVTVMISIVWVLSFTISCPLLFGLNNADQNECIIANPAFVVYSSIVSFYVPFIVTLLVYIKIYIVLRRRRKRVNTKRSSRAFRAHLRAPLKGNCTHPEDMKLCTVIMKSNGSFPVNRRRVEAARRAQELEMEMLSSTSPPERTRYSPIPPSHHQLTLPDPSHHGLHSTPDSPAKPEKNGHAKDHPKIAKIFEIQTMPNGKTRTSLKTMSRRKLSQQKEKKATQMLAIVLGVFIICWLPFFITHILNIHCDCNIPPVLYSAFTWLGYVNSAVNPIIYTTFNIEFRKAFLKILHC

Chain of human D2S receptor (P14416 1-414 isoform P14416-2): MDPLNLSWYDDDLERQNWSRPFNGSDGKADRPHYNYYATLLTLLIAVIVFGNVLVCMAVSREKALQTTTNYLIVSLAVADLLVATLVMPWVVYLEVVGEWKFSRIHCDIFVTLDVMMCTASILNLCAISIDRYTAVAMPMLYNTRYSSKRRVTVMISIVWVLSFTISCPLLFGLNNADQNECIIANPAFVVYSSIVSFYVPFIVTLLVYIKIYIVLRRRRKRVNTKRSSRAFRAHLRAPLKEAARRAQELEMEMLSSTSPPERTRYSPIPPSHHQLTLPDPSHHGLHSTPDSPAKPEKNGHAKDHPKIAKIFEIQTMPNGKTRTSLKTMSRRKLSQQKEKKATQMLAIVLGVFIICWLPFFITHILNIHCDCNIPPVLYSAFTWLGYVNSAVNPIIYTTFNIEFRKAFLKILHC

Row | SMILES | Inhibition of the alpha-adrenergic receptors [1] | IC50 (human D2S receptor) [nM] | Parkinsonism or extrapyramidal symptoms [2] | Propensity for weight gain [2] | Agonist effect in the presence of dopamine or norepinephrine [3] | Antagonist potency of R(−) relative to S(+) enantiomer, D2L (human D2L receptor; based on the IC50) [fold] | IC50 (human D2L receptor; read-out: IC50 of enantiomers, D2L, [35S]GTPγS binding assay) [nM] | Antagonist potency of R(−) relative to S(+) enantiomer, D2S (human D2S receptor; based on the IC50) | IC50 (human D2S receptor; read-out: IC50 of enantiomers, D2S, [35S]GTPγS binding assay) [nM]
1 | CCc1c(C)[nH]c2c1C(=O)C(CN1CCOCC1)CC2 (stereo not drawn) [SPN-810M, Molindone Hydrochloride] | no significant inhibition | 84.4 | little to no parkinsonism or extrapyramidal symptoms | low propensity for weight gain | No agonist effect | – | – | – | –
2 | CCc1c(C)[nH]c2c1C(=O)[C@@H](CN1CCOCC1)CC2 (single isomer, unassigned) [R(−) enantiomer] | – | – | – | – | – | ~300 | 21 | ~ 100 fold | 48
